Measurements reported in the NIST ThermoML archive (doi:10.1021/je700179q).
± gives the expanded uncertainty stated by the source.

Conditions: Crystal; visual observation

- Normal melting temperature: 116.00 ± 1 °C
Structure (SMILES): c1ccc2c(c1)Cc1ccccc1-2 [fluorene]
